Laboratory results published in patent US20150038430A1, “THERAPEUTIC PEPTIDOMIMETIC MACROCYCLES” (AILERON Therapeutics, Inc., priority 2008, published 2015).

Experiments:
A375 = format: cell-based, human; conditions: 24 h
Method: (§1) Cell viability assays shown in FIGS. 34-52 were performed according to a similar protocol. Cells were split at optimal cell density a day prior to the initiation of the study. The next day, cells were washed twice in serum-free Opti-MEM media and 4000 cells/well were added to each well in a final volume of […] Opti-MEM. For serum-free experiments, macrocycles were diluted from 2 mM stocks (100% DMSO) in sterile water to prepare 400 μM working solutions. A 40 μM solution was then generated by ten-fold dilution in assay buffer. The macrocycle and controls were then serially diluted two-fold in assay buffer in dosing plates to provide concentrations between 1.2 and 40 μM, respectively. For experiments in 2% human serum, macrocycles were diluted from 10 mM stocks (100% DMSO) in sterile water to prepare 1 mM working solutions. A 100 μM solution was generated by ten-fold dilution in assay buffer. The macrocycles and controls were then serially diluted two-fold in assay buffer in dosing plates to provide concentrations between 3 and 100 μM, respectively. 50 μl of each dilution was then added to the appropriate wells of the test plate to achieve final concentrations of the macrocycle between 0.6 to 20 μM (for serum free experiment) or 1.5 to 50 μM (for 2% serum experiment), respectively. Controls included wells without macrocycles containing the same concentration of DMSO as the macrocycle-containing wells, wells containing 0.1% Triton X-100, and wells containing no cells. Plates were incubated for 24 hours at 37° C. in a humidified 5% CO2 atmosphere. At the end of a 24 hr incubation period, a CellTiter-Glo Luminescent Cell Viability Assay was performed according to manufacturer's instructions (Promega, catalog #G7571) and the luminescence was measured using a BIO-TEK synergy HT Plate reader. Values were plotted as percent viable, i.e. as a percentage of the negative control value (derived from cells exposed to DMSO only). All assays were performed in duplicate.
(§2) The following tables summarize the EC50 values (μM) observed with peptidomimetic macrocycles of the invention in various cell lines: […]

DHL-6 = format: cell-based, human; conditions: 24 h
Method: as §1, §2

Jurkat = format: cell-based, human; conditions: 24 h
Method: as §1, §2

MDA-MB231-Met = format: cell-based, human; conditions: 24 h
Method: as §1, §2

MM1S = format: cell-based, human; conditions: 24 h
Method: as §1, §2

Molt-4 = format: cell-based, human; conditions: 24 h
Method: as §1, §2

NCI-H82 (SCLC-MCL1+) = format: cell-based, human; conditions: 24 h
Method: as §1, §2

OVCAR8 = format: cell-based, human; conditions: 24 h
Method: as §1, §2

PC3 = format: cell-based, human; conditions: 24 h
Method: as §1, §2

RS4;11 = format: cell-based, human; conditions: 24 h
Method: as §1, §2

Raji = format: cell-based, human; conditions: 24 h
Method: as §1, §2

SEMK2 = format: cell-based, human; conditions: 24 h
Method: as §1, §2

BAX = target: T1, BAX (Homo sapiens, UniProt Q07812); test: Immunoprecipitation in MM1S cell lysates; format: binding; conditions: multiple myeloma (MM1S) cell lysates
T1 construct: endogenous in cells; host or cells: MM1S multiple myeloma cells (lysate)
Method: It is possible to measure binding of peptides or peptidomimetic macrocycles to their natural acceptors in cell lysates or intact cells by immunoprecipitation and pull-down experiments. For example, intact cells are incubated with fluoresceinated (FITC-labeled) or biotinylated compounds for 4 hrs in the absence of serum, followed by serum replacement and further incubation that ranges from 4-18 hrs. Alternatively, cells can be incubated for the duration of the experiment in Opti-MEM (Invitrogen). Cells are then pelleted and incubated in lysis buffer (50 mM Tris [pH 7.6], 150 mM NaCl, 1% CHAPS and protease inhibitor cocktail) for 10 minutes at 4° C. 1% NP-40 or Triton X-100 may be used instead of CHAPS. Extracts are centrifuged at 14,000 rpm for 15 minutes and supernatants collected and incubated with 10 μl goat anti-FITC antibody or streptavidin-coated beads for 2 hrs, rotating at 4° C. followed by further 2 hrs incubation at 4° C. with protein A/G Sepharose (50 μl of 50% bead slurry).). No secondary step is necessary if using streptavidin beads to pull down biotinylated compounds. […]

Bcl-xL = Bcl-xL (Homo sapiens, UniProt Q07817); test: Protein-ligand binding experiment (SEC-LC-MS); conditions: 1 μM macrocycle plus 5 μM Bcl-xL, 60 min room temperature
Method: Protein-ligand binding experiments were conducted according to the following representative procedure outlined for a system-wide control experiment using 1 μM SP-4 plus 5 μM Bcl-xL. A 1 μl DMSO aliquot of a 40 μM stock solution of peptidomimetic macrocycle was dissolved in 19 μl of PBS (Phosphate-buffered saline: 50 mM, pH 7.5 Phosphate buffer containing 150 mM NaCl). The resulting solution was mixed by repeated pipetting and clarified by centrifugation at 10 000 g for 10 min. To a 4 μl aliquot of the resulting supernatant was added 4 μl of 10 μM BCL-xL in PBS. Each 8.0 μl experimental sample thus contained 40 pmol (1.5 μg) of protein at 5.0 μM concentration in PBS plus 1 μM peptidomimetic macrocycle and 2.5% DMSO. Duplicate samples thus prepared for each concentration point were incubated for 60 min at room temperature, and then chilled to 4° C. prior to size-exclusion chromatography-LC-MS analysis of 5.0 μL injections. Samples containing a target protein, protein-ligand complexes, and unbound compounds were injected onto an SEC column, where the complexes were separated from non-binding component by a rapid SEC step. The SEC column eluate was monitored using UV detectors to confirm that the early-eluting protein fraction, which elutes in the void volume of the SEC column, was well resolved from unbound components that are retained on the column. […]

T1 sequence (Q07812 whole entry): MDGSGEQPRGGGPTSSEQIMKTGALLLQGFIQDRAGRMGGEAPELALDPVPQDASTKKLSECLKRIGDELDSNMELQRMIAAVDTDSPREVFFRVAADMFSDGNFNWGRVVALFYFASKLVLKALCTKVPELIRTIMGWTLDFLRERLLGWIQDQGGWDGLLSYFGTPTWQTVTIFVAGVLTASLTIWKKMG
Chain of Bcl-xL (Q07817 whole entry): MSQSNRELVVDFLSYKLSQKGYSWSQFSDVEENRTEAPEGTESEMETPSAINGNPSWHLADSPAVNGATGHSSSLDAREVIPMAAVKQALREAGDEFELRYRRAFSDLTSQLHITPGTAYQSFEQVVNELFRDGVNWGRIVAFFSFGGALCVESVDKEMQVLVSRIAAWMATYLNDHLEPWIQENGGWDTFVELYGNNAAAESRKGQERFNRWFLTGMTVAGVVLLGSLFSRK

- EC50 (A375): 8 µM
- EC50 (DHL-6): 3.8 µM
- EC50 (Jurkat): 1.6 µM
- EC50 (MDA-MB231-Met): 8.5 µM
- EC50 (MM1S): 4.9 µM
- EC50 (Molt-4): 2.2 µM
- EC50 (NCI-H82 (SCLC-MCL1+)): 4.9 µM
- EC50 (OVCAR8): 20 µM
- EC50 (PC3): 5 µM
- EC50 (RS4;11): 10 µM
- EC50 (Raji): 9 µM
- EC50 (SEMK2): 4 µM
- detection of protein-ligand complex with Bcl-xL (Bcl-xL): detection of the protein-ligand complex
SMILES: CC[C@H](C)[C@H](NC(C)=O)C(=O)N[C@@H](Cc1c[nH]c2ccccc12)C(=O)N[C@H](C(=O)N[C@@H](C)C(=O)N[C@@H](CCC(N)=O)C(=O)N[C@@H](CCC(=O)O)C(=O)N[C@@H](CC(C)C)C(=O)N[C@@H](CCCNC(=N)N)C(=O)NC1(C)CCCC=CCCCC(C)(C(=O)N[C@@H](Cc2ccccc2)C(=O)N[C@@H](CC(N)=O)C(=O)N[C@@H](C)C(=O)N[C@@H](Cc2ccc(O)cc2)C(=O)N[C@@H](Cc2ccc(O)cc2)C(=O)N[C@@H](C)C(=O)N[C@@H](CCCNC(=N)N)C(=O)N[C@@H](CCCNC(=N)N)C(N)=O)NC(=O)[C@H](CC(=O)O)NC(=O)CNC(=O)[C@H]([C@@H](C)CC)NC1=O)[C@@H](C)CC (some centres unmarked) [SP-4]
- binding to pro-apoptotic target protein BAX (BAX): sequence-specific and structure-specific binding
